Here are results for one compound from publication PMC6377692 (EJNMMI Research, 2019).

Series [1] is described as follows: in vitro autoradiography, pancreas sections. The series is classed as binding, Sprague Dawley rat. Conditions: rat pancreas, 5–10 nM tracer, n = 1. How it is done:
(§1) Liver and pancreas tissues were collected post-mortem from cynomolgus monkeys (NHP) and Sprague Dawley rats. The use of animal tissues collected post-mortem was approved by the Animal Research Ethical Committee of the Uppsala Region and was performed according to the Uppsala university guidelines on animal experimentation (UFV 2007/724).
(§2) Sections were added in duplicates in each individual assay, and each experiment was repeated at least three times with different batches of radioligand, except for rat sections that were only performed in one assay.
(§3) After incubation, the sections were washed three times in 150 mL PBS. Sections were carefully dried at 37 °C and then exposed against a digital phosphorimager plate overnight together with a 10-μl droplet of radioactive reference (cross-calibrated against a gamma counter) on an absorbent paper attached to an object glass. The phosphor imager plates were scanned using a Cyclone Plus Phosphor imager (Perkin Elmer) at 600 dpi, and the resulting autoradiograms analyzed by ImageJ software (NIH, Bethesda). Pixel values in counts/mm^2 were converted to Bq/mm^2 by the included reference. Bq/mm^2 was further converted to fmol/mm^2 by the known specific radioactivity (fmol/Bq) of each batch of radiopharmaceutical.

Series [2] addresses T1, GCGR in human liver sections (Homo sapiens, UniProt P47871).
T1 construct: tissue Uppsala Biobank (sample collection 827); host or cells: frozen human liver sections
The series can be described thus: in vitro autoradiography, liver sections. The series is classed as binding. The procedure:
(§4) Biopsies from donor human liver and pancreas were obtained from Uppsala Biobank (sample collection 827), and their use was approved by local ethical review board (EPN 2015/401).
as §2, §3

For series [3], the target named is T2, HEK293 cells transfected with human GCGR (Homo sapiens, UniProt P47871).
T2 construct: expressed in transfected cells; host or cells: HEK293
Description: cellular internalization assay. It counts as cell-based. The procedure: The assay was also performed at 4 °C (5% CO2) for 60 and 120 min to suppress internalization. The exact number of cells in each well was assessed by cell counter. After incubation, the hot media containing the radioligand was removed and the cells washed with serum-free media two to three times while cells were put on ice.
To measure membrane bound and internalized radioligand, cells were treated first with 0.2 M glycine buffer containing 4 M urea (pH 2.5) (acid wash buffer) and secondly 1 M NaOH (basic wash buffer).
Briefly, first 0.5 mL of acid wash buffer was added to the cells and allowed to incubate for 5 min on ice. The supernatant was then removed and measured in a well counter (membrane bound fraction) (Uppsala Imanet AB, Uppsala, Sweden). The cells were washed one time, before 0.5 mL of basic wash buffer was added and allowed to incubate for 30 min at 37 °C. Then, the detached cells were collected and measured by well counter (internalized fraction). All samples were repeated in triplicates.
The well counter data for each dish and condition was decay corrected to the time at the start of each experiment and expressed as Bq. The internalized and the total cell-associated (internalized + cell membrane bound) fractions were expressed as percentage of the total added radioligand per million of cells (%ID/M cells). […]

Series [4] is described as follows: rat in vivo competition with precursor peptide. Details: species or system Sprague Dawley rats. As to conditions: male, Sprague Dawley, total radioactivity, tracer alone, 40 min (S01) or 60 min (S02) p.i., S02 baseline stated for liver and spleen, read-out: baseline binding in the liver. How it is done:
(§5) A competition study with each respective radiotracer precursor peptide was performed to investigate in vivo selectivity in selected tissues (the blood, heart, lung, liver, pancreas, spleen, kidney, muscle, and bone marrow).
(§6) Animals in each group (n = 4 for each radioligand) were co-injected with 1 mg/kg of either unlabelled DO3A-S01-GCG or -DO3A-S02-GCG peptide to determine the fraction of binding in each tissue which was receptor mediated.
(§7) The time point of euthanasia for each radiotracer was determined based on liver-to-blood ratio obtained from the biodistribution study above, as well as the radionuclide half-life and known radiotracer precursor half-life in blood plasma. Tissue resection and analysis of radioactive uptake in each tissue (expressed as SUV) were performed and analyzed as described above.

For series [5], the target named is T3, GCG receptor (Rattus norvegicus, UniProt P30082).
T3 construct: tissue Taconic, Denmark (animals); host or cells: organs of living Sprague Dawley rats (liver, spleen, bone marrow and others)
Description: rat in vivo competition with precursor peptide. Details: species or system Sprague Dawley rats. Conditions: 1 mg/kg unlabelled precursor. How it is done:
as §5, §6, §7

Series [6] has as its target T4, GCGR in rat liver sections (Rattus norvegicus, UniProt P30082).
T4 construct: from tissue; host or cells: frozen Sprague Dawley rat liver sections
Description: in vitro autoradiography, liver sections. The series is classed as binding, Sprague Dawley rat. How it is done: as §1, §2, §3

A short description of series [7]: in vitro autoradiography, pancreas sections. The series is classed as binding. As to conditions: human pancreas, 5–10 nM tracer, n = 3. The procedure:
as §4, §2, §3

Series [8] is described as follows: human predicted dosimetry (OLINDA/EXM 1.1, from rat biodistribution). The procedure:
The dosimetry calculations were performed as described previously for [^68Ga]Ga-DO3A-VS-Cys^40-Exendin4 [11].
Briefly, animal-derived tissue uptake was normalized to that of human tissues (using tissue weights of whole body adult reference male and female phantoms). The normalized SUVs were then un-decay corrected to their respective time point to reflect the actual radiation burden in each tissue. The tissue residence times (MBq-h/MBq) were assessed by trapezoidal approximation of the un-decay-corrected human SUV biodistribution data. The tissue washout from the last time point (180 min) to infinity was estimated by a single mono-exponential fit.
The estimation of the absorbed dose was performed by the OLINDA/EXM 1.1 software (Vanderbilt University, USA) where the calculations were based on the adult reference male or female phantoms to obtain the intended absorbed dose estimate in humans (ICRP60). The organ-specific doses are reported as mGy/MBq (effective dose as mSv/MBq). The amount of MBq that can be safely administered annually (MBq/year) was calculated for each organ as well as the effective dose, by dividing the limiting dose (10 mSv/year for the effective dose, 150 mGy/year for all tissues except for the red marrow and uterus with 50 mGy/year) by the dose (mGy/MBq or mSv/MBq).

The conditions of series [9]: data not shown.
Series [10] in a line: in vitro autoradiography, pancreas sections. It counts as binding, cynomolgus monkey (NHP). Conditions: NHP pancreas, 5–10 nM tracer. The procedure: as §1, §2, §3
The subject of series [11] is GCGR in NHP liver sections. The series can be described thus: in vitro autoradiography, liver sections. It counts as binding, cynomolgus monkey (NHP). How it is done:
as §1, §2, §3

The mark [12] stands for this setting: extrapolated from rat biodistribution.

SMILES strings stand for the structures. Several values for one entry are separate records, joined by “and”; a condition that tells them apart may be missing. Identical values can stand only once. Bridge positions count the residues as written; N and C are the ends. Square brackets hold non-standard residues; d marks the D form. Peptide text beside a SMILES is read from it. * marks the point of attachment. DO3A(CH2CH2SO2CH2CH2) = O=C(O)CN1CCN(CCS(=O)(=O)CC*)CCN(CC(=O)O)CCN(CC(=O)O)CC1; Ala(4-thiazolyl) = N[C@@H](Cc1cscn1)C(=O)O

T3 sequence (P30082 27-485): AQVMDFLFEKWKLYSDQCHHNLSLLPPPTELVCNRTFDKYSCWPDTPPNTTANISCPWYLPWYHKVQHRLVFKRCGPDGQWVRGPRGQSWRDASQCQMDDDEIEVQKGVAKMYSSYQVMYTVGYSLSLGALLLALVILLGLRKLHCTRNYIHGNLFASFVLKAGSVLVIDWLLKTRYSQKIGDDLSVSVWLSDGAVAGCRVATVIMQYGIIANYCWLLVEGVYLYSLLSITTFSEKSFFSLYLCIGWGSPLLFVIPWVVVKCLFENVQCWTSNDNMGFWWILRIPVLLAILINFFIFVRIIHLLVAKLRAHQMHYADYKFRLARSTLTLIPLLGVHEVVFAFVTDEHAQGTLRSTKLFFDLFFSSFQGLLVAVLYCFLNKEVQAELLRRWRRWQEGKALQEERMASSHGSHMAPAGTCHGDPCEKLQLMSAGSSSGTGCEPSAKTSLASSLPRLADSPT
T2 sequence (P47871 26-477): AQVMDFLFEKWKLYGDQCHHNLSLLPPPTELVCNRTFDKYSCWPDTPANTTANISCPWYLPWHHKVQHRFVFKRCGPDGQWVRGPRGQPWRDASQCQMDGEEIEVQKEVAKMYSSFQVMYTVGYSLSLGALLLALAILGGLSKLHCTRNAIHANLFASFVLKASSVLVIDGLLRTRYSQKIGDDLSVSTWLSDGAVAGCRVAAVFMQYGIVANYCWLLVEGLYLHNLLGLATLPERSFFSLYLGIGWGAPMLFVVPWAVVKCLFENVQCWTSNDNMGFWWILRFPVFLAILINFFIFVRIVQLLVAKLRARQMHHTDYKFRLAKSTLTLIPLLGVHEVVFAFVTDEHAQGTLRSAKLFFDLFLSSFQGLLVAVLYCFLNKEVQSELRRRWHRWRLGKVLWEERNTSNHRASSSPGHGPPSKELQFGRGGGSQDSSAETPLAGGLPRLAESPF
T1 sequence (P47871 26-477): as above
T4 sequence (P30082 27-485): as the sequence (P30082 27-485) above

For `CC[C@H](C)[C@H](NC(=O)[C@H](Cc1ccccc1)NC(=O)[C@H](CCC(=O)O)NC(=O)[C@@H]1CCCCNC(=O)CC[C@H](NC(=O)[C@H](CC(=O)O)NC(=O)[C@H](CC(C)C)NC(=O)[C@H](CCC(N)=O)NC(=O)[C@H](CCCCN)NC(=O)[C@H](CO)NC(=O)[C@H](Cc2ccc(O)cc2)NC(=O)[C@H](CC(=O)O)NC(=O)[C@H](CO)NC(=O)[C@@H](NC(=O)[C@H](Cc2ccccc2)NC(=O)[C@@H](NC(=O)CNC(=O)[C@H](CCC(N)=O)NC(=O)[C@@H](CO)NC(=O)[C@@H](N)Cc2cscn2)[C@@H](C)O)[C@@H](C)O)C(=O)N[C@@H](CCC(N)=O)C(=O)N[C@@H](CCCNC(=N)N)C(=O)N[C@@H](C)C(=O)N1)C(=O)N[C@@H](CCC(=O)O)C(=O)N[C@@H](Cc1c[nH]c2ccccc12)C(=O)N[C@@H](CC(C)C)C(=O)N[C@@H](CC(C)C)C(=O)N[C@@H](C)C(=O)N[C@H](C(=O)NCC(=O)N1CCC[C@H]1C(=O)N[C@@H](CCC(=O)O)C(=O)N[C@@H](CO)C(=O)NCC(=O)N[C@@H](C)C(=O)N1CCC[C@H]1C(=O)N1CCC[C@H]1C(=O)N1CCC[C@H]1C(=O)N[C@@H](CO)C(=O)N[C@@H](CSCCS(=O)(=O)CCN1CCN(CC(=O)O)CCN(CC(=O)O)CCN(CC(=O)O)CC1)C(N)=O)[C@@H](C)O` [[^68Ga]Ga-DO3A-S01-GCG, metal not drawn] (H-[Ala(4-thiazolyl)][dS]QGTFTSDYSKQLDEQRAKEFIEWLLATGPESGAPPPSC(DO3A(CH2CH2SO2CH2CH2))-NH2; lactam 16-20), the “binding in pancreas sections” value in series [1], in [7] and in series [10] was “Only background binding” throughout. Moreover, the “effect of GLP-1 in excess on tracer binding to liver sections” value is “did not induce inhibition” in series [2] (1 μM GLP-1, n = 3); “did not induce inhibition” in series [6] (1 μM GLP-1, n = 1); “did not induce inhibition” in series [11] (1 μM GLP-1). Moreover, the “inhibition of tracer binding to liver sections by co-incubation with own precursor peptide” value is on record as “did not increase the degree of inhibition” in series [2] (10 μM precursor, n = 3); “did not increase the degree of inhibition” in series [6] (10 μM precursor, n = 1); “did not increase the degree of inhibition” in series [11] (10 μM precursor). Besides, in [3] (3–7 nM tracer, RT, after 60–120 min (S01) or 60 min (S02), triplicates, 3 batches), the “binding to GCGR-transfected cells at steady state / plateau (total cell-associated)” value is “approximately 65 % ID/million cells”. Moreover, in series [3] (4 °C, 60 and 120 min), the “effect of cooling on internalization” value was “suppressed almost completely”. Also, in series [4], the SUV is over 2 SUV. For the same compound, the “decrease of binding in the spleen by co-injection of precursor peptide” value in series [5] (40 min (S01) or 60 min (S02) p.i., n = 4 per group) is on record as over 80%. In addition, the “decrease of binding in the liver by co-injection of precursor peptide” value in [5] (40 min (S01) or 60 min (S02) p.i., n = 4 per group, 1 mg/kg) was > 80% and 84%. For the same compound, the “effect of co-injection of precursor peptide on kidney uptake” value in [5] (40 min p.i.) is “not affected”. Also, the “decrease of binding in the bone marrow by co-injection of precursor peptide” value in series [5] (40 min p.i., n = 4 per group) was over 80%. Moreover, in series [8] (setting [12]), the “human predicted absorbed dose, kidneys” value is 0.53 mGy/MBq. Moreover, the “human predicted whole body effective dose” value in series [8] (setting [12]) is listed as 20.2 μSv/MBq. In addition, the “calculated maximal annual dosing, limited by whole body effective dose” value in [8] (limit 10 mSv/year) was 495 MBq. Also, in series [8] (limit 50 mGy/year), the “calculated maximal annual dosing, by bone marrow absorbed dose” value was over 2000 MBq. The “calculated maximal annual dosing, limited by kidney dose” value in [8] (limit 150 mGy/year) is recorded as 278 MBq. Besides, the exposure in series [9] was 1570 ng·h/mL. The “plasma t½” value in series [9] was 15 min. In addition, the “inhibition of tracer binding to liver sections by co-incubation with GCG” value in [11] (5–10 nM tracer, 10 μM GCG, 60 min RT, n = 3 (S01), n = 4 (S02)) was over 60%.
